# Assay results from paper PMC4457643 (Biochimica et biophysica acta, 2015).
# Read-outs that look alike come from different tables or passages of the source.
# Assays:
# CcP(triLeu) [1] = target: T1, CcP(triLeu) (Saccharomyces cerevisiae, UniProt P00431, H119L/R115L/W118L); test: biochemical; assay type: binding, yeast
# CcP(triAla) [2] = target: T2, CcP(triAla) (Saccharomyces cerevisiae, UniProt P00431, H119A/R115A/W118A); test: biochemical; assay type: binding, yeast; conditions: for share of absorbance change, high-affinity (KD1) phase / share of absorbance change, low-affinity (KD2) phase: pH 7.0
# CcP(triVal) [3] = target: T3, CcP(triVal) (Saccharomyces cerevisiae, UniProt P00431, H119V/R115V/W118V); test: biochemical; assay type: binding, yeast; conditions: for share of absorbance change, high-affinity (KD1) phase / share of absorbance change, low-affinity (KD2) phase: pH 7.0
# [4] = free ligand; cited from earlier work
# CcP(triVal) [5] = target: T3, CcP(triVal); test: Stopped-flow kinetics of imidazole binding to CcP; design: species or system yeast; conditions: for pKa1 for ka^app / kd^app, k^acid (low pH limit): fit to Eq. 4; for ka^app, k^acid (low pH value): fit to Eq. 4, 0.10 M ionic strength, 25 °C; for ka^app / kd^app / kmax: pH 7
# CcP(triAla) [6] = target: T2, CcP(triAla); test: Stopped-flow kinetics of imidazole binding to CcP; design: species or system yeast
# CcP(triLeu) [7] = target: T1, CcP(triLeu); test: Stopped-flow kinetics of imidazole binding to CcP; design: species or system yeast; conditions: for pKa1 for ka^app / pKa2 for ka^app: fit to Eq. 4 with pKa1 ≤ pKa2
# [8] = read-out: KD2 (low-affinity phase), pH 7.0, 0.10 M ionic strength potassium phosphate buffer
# [9] = fast phase, listed as imidazole
# [10] = slow phase, listed as imidazole
# [11] = read-out: KD1 (high-affinity phase), pH 7.0, 0.10 M ionic strength potassium phosphate buffer
# [12] = read-out: KD1base (high pH limit of KD1), fit of pH dependence pH 4-8 to Eq. 2
# [13] = read-out: KD1acid (low pH limit of KD1), fit of pH dependence pH 4-8 to Eq. 2
# [14] = read-out: KD2base (high pH limit of KD2), fit of pH dependence pH 4-8 to Eq. 2
# [15] = fast phase, fit to Eq. 4, 0.10 M ionic strength, 25 °C
# [16] = slow phase, single-ionization fit
# T2 sequence (P00431 68-361 R115A/W118A/H119A): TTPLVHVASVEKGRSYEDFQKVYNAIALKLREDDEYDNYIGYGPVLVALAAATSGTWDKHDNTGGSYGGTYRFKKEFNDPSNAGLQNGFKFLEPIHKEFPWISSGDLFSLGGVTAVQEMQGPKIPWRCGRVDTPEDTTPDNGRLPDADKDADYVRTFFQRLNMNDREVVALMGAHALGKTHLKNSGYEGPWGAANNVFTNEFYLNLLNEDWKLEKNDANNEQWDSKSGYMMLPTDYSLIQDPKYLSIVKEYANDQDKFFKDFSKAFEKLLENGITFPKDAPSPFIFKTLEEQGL
# T1 sequence (P00431 68-361 R115L/W118L/H119L): as the sequence (P00431 68-361 R115A/W118A/H119A) above, with A48L, A51L, A52L counted along it
# T3 sequence (P00431 68-361 R115V/W118V/H119V): as the sequence (P00431 68-361 R115A/W118A/H119A) above, with A48V, A51V, A52V counted along it
smiles,measurement,setting,value
"Cn1ccnc1 [1-Methylimidazole, 1-methylimidazole]",Kd,CcP(triLeu) [1],39 mM
same,Kd,CcP(triAla) [2],0.35 mM
same,"share of absorbance change, high-affinity (KD1) phase",CcP(triAla) [2],30%
same,"share of absorbance change, low-affinity (KD2) phase",CcP(triAla) [2],70%
same,"share of absorbance change, low-affinity (KD2) phase",CcP(triAla) [2]; listed as MIM,about 70%
same,Kd,CcP(triVal) [3],0.16 mM
same,"share of absorbance change, high-affinity (KD1) phase",CcP(triVal) [3],77%
same,"share of absorbance change, low-affinity (KD2) phase",CcP(triVal) [3],23%
same,Kd,CcP(triVal) [3]; [8],6.8 mM
"O=[N+]([O-])c1c[nH]cn1 [4-Nitroimidazole, 4-nitroimidazole]",pKa for the imidazole/imidazolate ionization,[4],9.5
same,Kd,CcP(triLeu) [1],35 mM
same,Kd,CcP(triAla) [2],16 mM
same,Kd,CcP(triVal) [3],0.56 mM
c1c[nH]cn1 [Imidazole],pKa1 for ka^app,CcP(triVal) [5]; fast phase,6.2 ± 0.3
same,"ka^app, k^acid (low pH value)",CcP(triVal) [5]; fast phase,5.4 ± 16.2 M^−1 s^−1
same,"ka^app, k^acid (low pH value)",CcP(triVal) [5]; [9],5.4 M^−1 s^−1
same,ka^app,CcP(triVal) [5]; fast phase,170 ± 7 M⁻¹ s⁻¹
same,kd^app,CcP(triVal) [5]; fast phase,0.32 ± 0.01 s⁻¹
same,kmax,CcP(triVal) [5]; fast phase,1.9 ± 0.1 s⁻¹
same,"kd^app, pH-independent average value","CcP(triVal) [5]; fast phase, pH range 4 to 8",0.25 ± 0.08 s^−1
same,"kmax, pH-independent value","CcP(triVal) [5]; fast phase, pH range 4 to 8",1.5 ± 0.3 s^−1
same,"kmax, pH-independent value","CcP(triVal) [5]; fast phase, pH range 4 to 8, listed as imidazole",1.5 s^−1
same,"kd^app, k^acid (low pH limit)",CcP(triVal) [5]; slow phase,0.026 ± 0.009 s^−1
same,pKa1 for ka^app,CcP(triVal) [5]; slow phase,7.6 ± 0.3
same,"ka^app, k^acid (low pH value)",CcP(triVal) [5]; slow phase,1.3 ± 0.7 M^−1 s^−1
same,"ka^app, k^acid (low pH value)",CcP(triVal) [5]; [10],1.3 M^−1 s^−1
same,"kd^app, k^acid (low pH limit)",CcP(triVal) [5]; [10],0.026 s^−1
same,ka^app,CcP(triVal) [5]; slow phase,30 ± 10 M⁻¹ s⁻¹
same,kd^app,CcP(triVal) [5]; slow phase,"0.050 ± 0,006 s^−1"
same,kmax,CcP(triVal) [5]; slow phase,0.16 ± 0.08 s⁻¹
same,"kmax, pH-independent value","CcP(triVal) [5]; slow phase, pH range 4 to 8",0.17 ± 0.04 s^−1
same,"kmax, pH-independent value","CcP(triVal) [5]; slow phase, pH range 4 to 8, listed as imidazole",0.17 s^−1
same,"share of absorbance change, high-affinity (KD1) phase",CcP(triLeu) [1]; pH 7.0,78%
same,"share of absorbance change, low-affinity (KD2) phase",CcP(triLeu) [1]; pH 7.0,22%
same,Kd,CcP(triLeu) [1]; [11],0.6 mM
same,Kd,CcP(triLeu) [1]; [12],0.22 ± 0.15 mM
same,Kd,CcP(triLeu) [1]; [8],17 mM
same,"share of absorbance change at 414 nm, low-affinity phase",CcP(triAla) [2]; between pH 4 and 8,75 ± 8%
same,"share of absorbance change, low-affinity phase",CcP(triAla) [2]; pH 5.5,76%
same,"share of absorbance change, high-affinity (KD1) phase",CcP(triAla) [2],17%
same,"share of absorbance change, low-affinity (KD2) phase",CcP(triAla) [2],83%
same,Kd,"CcP(triAla) [2]; read-out: KD1 (high-affinity phase), pH 5.5, 25 °C",0.1 ± 0.03 mM
same,Kd,CcP(triAla) [2]; [11],0.22 mM
same,Kd,CcP(triAla) [2]; [13],> 25 mM
same,Kd,CcP(triAla) [2]; [12],0.13 ± 0.06 mM
same,Kd,CcP(triAla) [2]; [8],12 mM
same,Kd,"CcP(triAla) [2]; read-out: KD2 (low-affinity phase), pH 7.0, 25 °C",11 ± 1 mM
same,Kd,CcP(triAla) [2]; [14],6.4 ± 0.7 mM
same,pKa1 for ka^app,"CcP(triAla) [6]; fast phase, fit to Eq. 4",7.0 ± 0.2
same,"ka^app, k^acid (low pH value)",CcP(triAla) [6]; [15],2.2 ± 0.4 M^−1 s^−1
same,ka^app,"CcP(triAla) [6]; fast phase, pH 7",80 ± 7 M⁻¹ s⁻¹
same,kd^app,"CcP(triAla) [6]; fast phase, pH 7",0.43 ± 0.04 s⁻¹
same,"kd^app, pH-independent average value","CcP(triAla) [6]; fast phase, pH range 4.0 to 8.0",0.47 ± 0.10 s^−1
same,kmax,"CcP(triAla) [6]; slow phase, pH 7",0.050 ± 0.009 s⁻¹
same,"kmax (= kslow), pH-independent average value","CcP(triAla) [6]; slow phase, pH range 4.0 to 8.0",0.032 ± 0.011 s^−1
same,"kmax (= kslow), pH-independent average value","CcP(triAla) [6]; slow phase, pH range 4.0 to 8.0, listed as imidazole",(3.2 ± 1.1) × 10^−2 s^−1
same,high-affinity imidazole binding stronger than for wild-type CcP,CcP(triVal) [3]; pH 7,4.7 orders of magnitude
same,"share of absorbance change, high-affinity (KD1) phase",CcP(triVal) [3],68%
same,"share of absorbance change, low-affinity (KD2) phase",CcP(triVal) [3],32%
same,"share of absorbance change, high-affinity phase, average",CcP(triVal) [3]; pH range 4 to 8,67 ± 10%
same,Kd,CcP(triVal) [3]; [11],0.083 mM
same,Kd,CcP(triVal) [3]; [13],9.6 ± 5.5 mM
same,Kd,CcP(triVal) [3]; [12],0.096 ± 0.007 mM
same,Kd,"CcP(triVal) [3]; read-out: KD1base (high pH limit of KD1), fit of pH dependence to Eq. 2",0.096 ± 0.007 mM
same,Kd,CcP(triVal) [3]; [8],12 mM
same,Kd,CcP(triVal) [3]; [14],6.7 ± 2.3 mM
same,"ka^app, k^acid (low pH value)",CcP(triLeu) [7]; [15],2.2 ± 0.4 M^−1 s^−1
same,"ka^app, k^base (high pH value)",CcP(triLeu) [7]; [15],0 ± 25 M^−1 s^−1
same,"ka^app, k^base (high pH value)","CcP(triLeu) [7]; fast phase, fit to Eq. 4, 0.10 M ionic strength, 25 °C, listed as imidazole",less than 25 M^−1 s^−1
same,pKa1 for ka^app,CcP(triLeu) [7]; fast phase,7.3 ± 0.9
same,pKa2 for ka^app,CcP(triLeu) [7]; fast phase,7.3 ± 1.5
same,pKa1 for ka^app,CcP(triLeu) [7]; [9],7.3
same,pKa2 for ka^app,CcP(triLeu) [7]; [9],7.3
same,ka^app,"CcP(triLeu) [7]; fast phase, pH 7",36 ± 4 M⁻¹ s⁻¹
same,kd^app,"CcP(triLeu) [7]; fast phase, pH 7",0.24 ± 0.03 s⁻¹
same,"kd^app, pH-independent average value","CcP(triLeu) [7]; fast phase, pH range 4 to 8",0.38 ± 0.12 s^−1
same,"kmax, average value","CcP(triLeu) [7]; slow phase, averaged over pH range 4 to 8",0.048 ± 0.018 s⁻¹
same,kmax,"CcP(triLeu) [7]; slow phase, pH 7",0.070 ± 0.002 s⁻¹
same,"kmax (= kslow), k^acid (low pH value)",CcP(triLeu) [7]; [16],0.032 ± 0.003 s^−1
same,"kmax (= kslow), k^neut (high pH value)",CcP(triLeu) [7]; [16],0.077 ± 0.011 s^−1
same,pKa1 for kmax,CcP(triLeu) [7]; [16],6.7 ± 0.4
